From US11021481B2, “Substituted isoindolin-1-ones and 2,3-dihydro-1h-pyrrolo[3,4-c]pyridin-1-ones as HPK1 antagonists” (Nimbus Saturn, Inc., priority 2019, dated 2021) come the findings set out here.

Structures can show the parent of a compound that is named as a salt. Some results are limits rather than exact numbers.

Sequence of HPK1 (Q92918 whole entry): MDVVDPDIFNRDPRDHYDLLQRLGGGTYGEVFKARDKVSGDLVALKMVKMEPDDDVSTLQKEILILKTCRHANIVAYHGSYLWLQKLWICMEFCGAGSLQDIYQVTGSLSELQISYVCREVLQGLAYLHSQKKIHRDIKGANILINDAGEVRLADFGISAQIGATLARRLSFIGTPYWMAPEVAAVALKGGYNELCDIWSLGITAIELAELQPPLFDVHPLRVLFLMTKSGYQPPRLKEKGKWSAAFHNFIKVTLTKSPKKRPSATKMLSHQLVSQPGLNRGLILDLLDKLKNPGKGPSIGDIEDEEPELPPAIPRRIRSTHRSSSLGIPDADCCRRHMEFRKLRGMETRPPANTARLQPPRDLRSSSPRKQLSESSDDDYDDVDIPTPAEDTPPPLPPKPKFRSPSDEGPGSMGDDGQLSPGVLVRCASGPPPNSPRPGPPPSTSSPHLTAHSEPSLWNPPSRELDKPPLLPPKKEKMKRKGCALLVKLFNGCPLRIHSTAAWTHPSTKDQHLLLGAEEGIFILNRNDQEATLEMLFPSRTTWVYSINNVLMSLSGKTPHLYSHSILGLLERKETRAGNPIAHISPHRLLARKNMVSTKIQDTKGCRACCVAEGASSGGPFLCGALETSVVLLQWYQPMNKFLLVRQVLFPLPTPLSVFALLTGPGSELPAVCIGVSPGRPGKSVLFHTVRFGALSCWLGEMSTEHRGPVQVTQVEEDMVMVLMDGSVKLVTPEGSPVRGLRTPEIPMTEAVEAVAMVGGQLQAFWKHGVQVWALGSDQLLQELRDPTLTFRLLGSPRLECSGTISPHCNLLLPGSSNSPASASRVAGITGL

This experiment has as its target HPK1 (Homo sapiens (Human), UniProt Q92918). Kind of experiment: HPK1 biochemical enzyme assay (microfluidic mobility shift assay). Conditions: 1.5 nM HPK1, ATP 1 mM final, 30 min preincubation, 60 min at RT, Caliper EZ Reader; read-out: HPK1 1000UMATP caliper IC50. In outline: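 Mobility shift readout of HPK1 activity after a 60 min RT reaction with 1 mM ATP, 1 μM substrate and 5 mM MgCl2. Enzyme/substrate mix was first exposed to compounds for 30 min, using ten-point curves topping at 3 μM final.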
Consider `Cn1nccc2c(-c3ccc(Nc4ccc(N5CCC(O)CC5)cn4)c4c3CNC4=O)cnc1-2` [I-375, 7-((5-(4-hydroxy-piperidin-1-yl)pyridin-2-yl)amino)-4-(1-methyl-1H-pyrrolo[2,3-c]pyridazin-5-yl)isoindolin-1-one], for which the IC50 is above 1000 nM. With `C[C@H]1COCCN1c1ccc(Nc2ccc(-c3cnc4cc(F)ccn34)c3c2C(=O)NC3)nc1CN(C)C` [I-531, 7-[[6-[(dimethylamino)-methyl]-5-[(3S)-3-methylmorpho-lin-4-yl]-2-pyridyl]amino] 4-(7-fluoroimidazo [1,2-a]pyridin-3-yl)isoindolin-1-one], the IC50 is below 100 nM. As for `CN1CCN(c2ccc(Nc3ccc(-c4c(-c5ccccc5)[nH]c5ccccc45)c4c3C(=O)NC4)nc2)CC1` [I-40, 7-[[5-(4-methylpiperazin-1-yl)-2-pyridyl]amino]-4-(2-phenyl-1H-indol-3-yl)isoindolin-1-one], the figure is below 100 nM. The same measure for `CN(C[C@H]1CN(c2ccc(Nc3ccc(-c4cnc5cc(F)ccn45)c4c3C(=O)NC4)nc2)CCO1)C1CC1` [I-499, 7-[[5-[(2S)-2-[[cyclopropyl (methyl)amino]methyl]morpholin-4-yl]-2-pyridyl]amino] 4-(7-fluoroimidazo [1,2-a]pyridin-3-yl)isoindolin-1-one]: below 100 nM. Consider `CN1CCN(Cc2ccc(Nc3ccc(-c4cnc5c(F)c(C(F)F)ccn45)c4c3C(=O)NC4)nc2)C(C)(C)C1` [I-672, 4-(7-(difluorometh-yl)-8-fluoroimidazo [1,2-a]pyridin-3-yl)-7-((5-((2.2.4-trimethylpiper-azin-1-yl)methyl)pyri-din-2-yl)amino)isoin-dolin-1-one], for which the IC50 is below 100 nM.

Take `CN1CCN(c2ccc(Nc3cnc(-c4cnn5c4CCC5)c4c3C(=O)NC4)nc2)CC1` [I-254, 4-(5,6-dihydro-4H-pyrrolo[1,2-b]pyrazol-3-yl)-7-((5-(4-methylpiperazin-1-yl)pyridin-2-yl)amino)-2,3-dihydro-1H-pyrrolo[3,4-c]pyridin-1-one]: the IC50 is 100 to 1000 nM. In the case of `Cc1ccn2c(-c3ccc(Nc4ccc(C5CCOC5)cn4)c4c3CNC4=O)cnc2c1` (centres unmarked) [I-155], the IC50 is below 100 nM. As for `CN(C)Cc1cc(C2CCCO2)cc(Nc2ccc(-c3cnc4cc(F)ccn34)c3c2C(=O)NC3)n1` (centres unmarked) [I-852, 7-((6-((dimethylamino)-methyl)-4-(tetrahydrofuran-2-yl)pyridin-2-yl)amino)-4-(7-fluoroimidazo [1,2-a]pyridin-3-yl)isoindolin-1-one Formate salt], the figure is below 100 nM. `CN1CCN(CC2(O)CCN(c3ccc(Nc4ccc(-c5cnc6cc(Cl)ccn56)c5c4C(=O)NC5)nc3)CC2)CC1` [I-437, 4-(7-chloroimidazo [1,2-a]pyridin-3-yl)-7-((5-(4-hydroxy-4-((4-methylpiperazin-1-yl)methyl)piper-idin-1-yl)pyridin-2-yl)amino)isoin-dolin-1-one]: the IC50 was below 100 nM.

On to `CN(C)CC1(F)CCCN(c2ccc(Nc3ccc(-c4cnc5cc(F)ccn45)c4c3C(=O)NC4)nc2)C1` (centres unmarked) [I-503], for which the IC50 is below 100 nM. The same measure for `Cn1ccc2c(-c3ncc(Nc4ccc(N5CCC[C@H](O)C5)cn4)c4c3CNC4=O)ccnc21` [I-179, 7-[[5-[(3S)-3-hydroxy-1-piperidyl]-2-pyridyl]amino]-4-(1-methylpyrrolo [2,3-b]pyridin-4-yl)-2,3-dihydropyrrolo [3,4-c]pyridin-1-one]: below 100 nM; for `C[C@@H](O)[C@H]1CN(c2ccc(Nc3ccc(-c4cnc5cc(F)ccn45)c4c3C(=O)NC4)nc2)CCO1` (single isomer, unassigned) [I-619]: below 100 nM; for `O=C1NCc2c(-c3cnc4cc(F)ccn34)ccc(Nc3ccc(N4CCC[C@H](N5CCOCC5)C4)cn3)c21` [I-501, (S)-4-(7-fluoroimidazo [1,2-a]pyridin-3-yl)-7-((5-(3-morpholinopip-eridin-1-yl)pyridin-2-yl)amino)isoin-dolin-1-one]: below 100 nM. The same measure for `O=C1NCc2c(-c3cnc4cc(F)ccn34)ccc(Nc3ccc([C@H]4CCOC4)c(CN4CC[C@@H](O)C4)n3)c21` [I-783, 4-(7-f1uoroimidazo [1,2-a]pyridin-3-yl)-7-((6-(((R)-3-hydroxypyrrol-idin-1-yl)methyl)-5-((R)-tetrahydrofuran-3-yl)pyridin-2-yl)amino)isoin-dolin-1-one]: below 100 nM; for `Cn1ccc2c(-c3ccc(Nc4ccc(N5CCNCC5)cn4)c4c3CNC4=O)ncnc21` [I-123, 4-(7-methylpyrrolo [2,3-d]pyrimidin-4-yl)-7-[(5-piperazin-1-yl-2-pyridyl)amino] isoindolin-1-one]: below 100 nM. As for `CN1CCN(c2ccc(Nc3ccc(-c4c[nH]c5cc(F)ccc45)c4c3C(=O)NC4)nc2)CC1` [I-32, 4-(6-fluoro-1H-indol-3-yl)-7-[[5-(4-methylpiperazin-1-yl)-2-pyridyl]amino] isoindolin-1-one], the figure is below 100 nM; as for `Cn1ccc2c(-c3ncc(Nc4ccnc(N5CC[C@H]6CNC[C@H]65)n4)c4c3CNC4=O)ccnc21` [I-684, 7-((2-((3aS, 6aS)-hexahydro-pyrrolo[3,4-b]pyrrol-1(2H)-yl)pyrimidin-4-yl)amino)-4-(1-methyl-1H-pyrrolo[2,3-b)pyridin-4-yl)-2,3-dihydro-1H-pyrrolo[3,4-c]pyridin-1-one], below 100 nM. For `Cc1ccn2c(-c3ncc(Nc4ccc(N5CCOCC5)cn4)c4c3CNC4=O)cnc2c1` [I-163], the IC50 was in the range of 100 to 1000 nM. As for `CN(C)Cc1nc(Nc2ccc(-c3cnc4cc(F)ccn34)c3c2C(=O)NC3)ccc1N1CCC(=O)N(C)CC1` [I-534, 7-[[6-[(dimethylamino)-methyl]-5-(4-methyl-5-oxo-1,4-diazepan-1-yl)-2-pyridyl]amino]-4-(7-fluoroimidazo [1,2-a]pyridin-3-yl)isoindolin-1-one Formic acid salt], the figure is below 100 nM; as for `CN1CCN(c2cccc(Nc3ccc(-c4cnc5cc(Cl)ccn45)c4c3C(=O)NC4)n2)CC1` [I-236, 4-(7-chloroimidazo [1,2-a]pyridin-3-yl)-7-[[6-(4-methylpiperazin-1-yl)-2-pyridyl]amino] isoindolin-1-one], below 100 nM; as for `COCC1CN(c2ccc(Nc3ccc(-c4ncnc5c4ccn5C)c4c3C(=O)NC4)nc2)CCO1` (stereo in doubt) [I-650, (S)-7-((5-(2-(methoxymeth-yl)morpho-lino)pyridin-2-yl)amino)-4-(7-methyl-7H-pyrrolo[2,3-d|pyrimidin-4-yl)isoindolin-1-one], below 100 nM.

`CN1CCC(C)(c2ccc(Nc3ccc(-c4ccnc5c4ccn5C)c4c3C(=O)NC4)nc2)CC1` [I-275, 7-((5-(1,4-dimethyl-piperidin-4-yl)pyridin-2-yl)amino)-4-(1-methyl-1H-pyrrolo[2,3-b]pyridin-4-yl)isoindolin-1-one]: the IC50 was below 100 nM. On to `O=C1NCc2c(-c3cnc4cc(F)ccn34)ccc(Nc3ccc([C@H]4CCOC4)c(CN4CC(F)C4)n3)c21` [I-762, (R)-7-((6-((3-fluoroazetidin-1-yl)methyl)-5-(tetrahydrofuran-3-yl)pyridin-2-yl)amino)-4-(7-fluoroimidazo [1,2-a]pyridin-3-yl)isoindolin-1-one], for which the IC50 was below 100 nM.

With `O=C1NCc2c(-c3cnc4ccccn34)ncc(Nc3ccc(N4CCC(O)CC4)cn3)c21` [I-160, 7-[[5-(4-hydroxy-1-piperidyl)-2-pyridyl]amino]-4-imidazo[1,2-a]pyridin-3-yl-2,3-dihydropyrrolo [3,4-c]pyridin-1-one], the IC50 is below 100 nM. As for `Cc1cc2c(-c3ncc(Nc4ccc(N5CCC[C@@H](C(C)(C)O)C5)cn4)c4c3CNC4=O)ccnc2n1C` [I-237, 4-[1,2-dimethylpyrrolo [2,3-b]pyridin-4-yl)-7-[[5-[(3R)-3-(1-hydroxy-1-methyl-ethyl)-1-piperidyl]-2-pyridyl]amino]-2,3-dihydropyrrolo [3,4-c]pyridin-1-one], the IC50 was in the range of 100 to 1000 nM. For `O=C1NCc2c(-c3cnc4cc(F)ccn34)ccc(Nc3ccc(C4(O)CCOCC4)cn3)c21` [I-371, 4-(7-fluoroimidazo [1,2-a]pyridin-3-yl)-7-((5-(4-hydroxtetra-hydro-2H-pyran-4-yl)pyridin-2-yl)amino)isoin-dolin-1-one], the IC50 was below 100 nM. With `O=C1NCc2c(-c3cnc4cc(F)ccn34)ccc(Nc3cccc(N4CCCC4=O)n3)c21` [I-340, 4-(7-fluoroimidazo [1,2-a]pyridin-3-yl)-7-((6-(2-oxopyrrolidin-1-yl)pyridin-2-yl)amino)isoin-dolin-1-one], the IC50 was above 1000 nM. In the case of `CNC1CCN(c2ccc(Nc3ccc(-c4cnc5ccccn45)c4c3C(=O)NC4)nc2)CC1` [I-58, 4-imidazo[1,2-a]pyridin-3-yl-7-[[5-[4-(methylamino)-1-piperidyl]-2-pyridyl]amino] isoindolin-1-one], the IC50 was below 100 nM. `CN(C)CCc1nc(Nc2ccc(-c3cnc4cc(F)ccn34)c3c2C(=O)NC3)ccc1C1CCOCC1` [I-838, 7-((6-(2-(dimethylami-no)ethyl)-5-(tetrahydro-2H-pyran-4-yl)pyridin-2-yl)amino)-4-(7-fluoroimidazo [1,2-a]pyridin-3-yl)isoindolin-1-one]: the IC50 was below 100 nM.

Consider `CN1CCN(c2ccc(Nc3ccc(-c4c[nH]c5ccncc45)c4c3C(=O)NC4)nc2)CC1` [I-24, 7-((5-(4-methylpiperazin-1-yl)pyridin-2-yl)amino)-4-(1H-pyrrolo[3,2-c]pyridin-3-yl)isoindolin-1-one], for which the IC50 was below 100 nM. The same measure for `CN1CCN(c2ccc(Nc3ccc(-c4ccn5ncnc5c4)c4c3C(=O)NC4)nc2)CC1` [I-36, 7-[[5-(4-methylpiperazin-1-yl)-2-pyridyl]amino]-4-([1,2,4]triazolo [1,5-a]pyridin-7-yl)isoindolin-1-one]: 100 to 1000 nM. `Cn1ccc2c(-c3ccc(Nc4ccc(N5CCCNCC5)cn4)c4c3CNC4=O)ccnc21` [I-79, 7-[[5-(1,4-diazepan-1-yl)-2-pyridyl]amino]-4-(1-methylpyrrolo [2,3-b]pyridin-4-yl)isoindolin-1-one]: the IC50 was below 100 nM.
